In ChEMBL document CHEMBL3507680, “University of Dundee, Gates Library screen for HepG2 cell viability”:

experiment: Human HepG2 cell viability assay in 384 well format; assay type: toxicity, cell-based; set-up: dose 125 nL, time 70.5 hour; concentration not given beside the values; conditions: HepG2 cells, read-out: Inhibition

| SMILES | cytotoxicity at 70.5 h [%] |
| --- | --- |
| CN(C(=O)C1CC(=O)N(CCc2ccccc2)C1)c1nccs1 (centres undefined) | 16.6 |
| COc1ccc(OC)c(C2CCN(C3CCN(C(C)=O)CC3)C2)c1 (centres undefined) | 2.82 |
| CCOc1ncccc1CNS(=O)(=O)c1ccc2c(c1)CCO2 | -2.87 |
| Cc1cc(NS(=O)(=O)c2cccs2)ccc1-n1cccc1C(=O)O | -1.78 |
| CCc1nc(C)c([C@H]2CN(C)C[C@@H]2C(=O)Nc2ccccc2F)[nH]1 | -13.9 |
| CC(NC(=O)N(C)CCCOc1ccc(F)cc1)c1nncn1C (centres undefined) | -1.45 |
| CNS(=O)(=O)c1cccc(CNC(=O)NCC2CCOC2)c1 (centres undefined) | -8.46 |
| O=S(=O)(c1ccc(Cl)cc1)N1C[C@@H]2CCN[C@@H]2C1 | -6.26 |
| Cc1ccc(C(=O)N2CCO[C@H]3[C@@H](OCc4ccccn4)CC[C@@H]32)o1 | -19.5 |
| Cc1nc(CN2CCO[C@H]3[C@@H](OCc4cccnc4)CC[C@@H]32)cs1 | 4.04 |
| O=C(NC1CCCC1)C1Cc2nc(-c3ccsc3)sc2N1CC1CC1 (centres undefined) | 9.52 |
| Cc1cccc(-c2noc([C@@H]3C[C@@H](O)CN3C)n2)c1 | 3.3 |
| CCOC[C@@H]1CCC[C@]12CN(S(=O)(=O)c1cn(C)cn1)CCO2 | -5.13 |
| CCOc1c(Cl)cc(/C=C/c2ncc(C(=O)O)s2)cc1OC | -18.4 |
| COc1ccnc(N2C[C@@H]3CC[C@H](C2)N(CC2CCC2)C3=O)n1 | -0.827 |
| CC(=O)N1CCC(NC(=O)N2CCN(c3cnccn3)CC2)CC1 | 1.14 |
| COc1ccc(C2CCCN2Cc2ccc(S(=O)(=O)N(C)C)o2)cc1 (centres undefined) | -1.88 |
| CN1CCOC(CNC(=O)Cc2ccccc2F)C1 (centres undefined) | -8.56 |
| CNC(=O)CN1CCc2c(CNc3nccs3)n[nH]c2C1 | -10.9 |
| O=S(=O)(NCC1(O)CCOc2ccccc21)c1ccccc1F (centres undefined) | -4.25 |
| CCOC(=O)CCNC(=O)N1CCOC(Cc2cccc(OC)c2)C1 (centres undefined) | -9.71 |
| O=C(Cc1ccccn1)N1CCn2cc(Cn3cncn3)nc2C1 | 0.952 |

| SMILES | cytotoxicity at 70.5 h [%] |
| --- | --- |
| COc1ccc(C2SCC(=O)N2c2ncc(C)s2)cc1 (centres undefined) | -1.35 |
| Cn1cccc1C(=O)NC(C)(C(N)=O)c1cccc(Cl)c1 (centres undefined) | -98.6 |
| Cc1c(Br)cnn1C(C)C(=O)Nc1nncs1 (centres undefined) | -14.2 |
| CCC1=N[C@@]2(CC[C@@H]3CN(C(=O)NCC4CCCCC4)C[C@@H]32)C(=O)N1 | -2.69 |
| Cc1noc(C)c1CNC(=O)N1CCC(OCC2CC2)CC1 | 25.4 |
| Cc1ccnc(C2CCN(S(=O)(=O)c3cn(C)cn3)CC2)n1 | -9.62 |
| Cc1cc(C(=O)N2CCC3(CC2)C(=O)N(C)CCN3CC2CC2)c(C)o1 | -2.24 |
| O=C(c1ccoc1)N1CCO[C@]2(CCC[C@@H]2COCc2ccncc2)C1 | 1.38 |
| Cn1ncc2c(=O)[nH]c(CN(Cc3cccc(F)c3)C3CC3)nc21 | 1.56 |
| CC(C)(CNc1ccccc1S(=O)(=O)C(F)F)N1CCOCC1 | -0.0351 |
| COCc1nc(CN2CC(=O)N(C)c3ccccc3C2=O)no1 | -5.63 |
| CN(C)CCN1CCOCC2(CCCN(C(=O)Cc3ccccc3)C2)C1 (centres undefined) | 10.9 |
| CNC(=O)CN1C(=O)CCC12CCCN(CCc1ccccc1)C2 (centres undefined) | 27.8 |
| COc1cc(C)c(C2CC(=O)NCc3nc4sccn4c32)cc1C (centres undefined) | -18 |
| COc1ccccc1OCC(=O)Nc1ncccc1C | -3.19 |
| Cc1nn(C)c(C)c1C1CCCN1Cc1nc(C2CC2)no1 (centres undefined) | 36.6 |
| O=C(c1ccnn1-c1ccc2ccccn12)N1CCOCC1 | -3.59 |
| CC(C)OC(=O)CC(NC(=O)CCn1cccn1)c1ccccc1 (centres undefined) | 5.59 |
| CC(=O)N(Cc1noc(C2CC2)n1)C1CCN(CC(=O)NC2CC2)C1 (centres undefined) | -7.63 |
| FC(F)(F)Cn1ccnc1CN1CCCC1c1noc(C2CC2)n1 (centres undefined) | -0.904 |
| Cc1nc(N2CCOCC2)nc2c1COCC21CCN(CC(C)C)C1 (centres undefined) | -5.39 |
| Cc1c(C)n2c(SCC(=O)N3CCCCC3)nnc2[nH]c1=O | -8.89 |
